ChEMBL document CHEMBL3352021, “Naphthyridinone (NTD) integrase inhibitors 4. Investigating N1 acetamide substituent effects with C3 amide groups” (Bioorg Med Chem Lett, 2014)

Legend:
[1] = tested on: Human immunodeficiency virus; assay: Antiviral activity against pseudotyped HIV by luciferase reporter gene assay; format: functional, organism-based; settings: Human immunodeficiency virus 1
[2] = target: Human immunodeficiency virus type 1 integrase (Human immunodeficiency virus 1, UniProt Q7ZJM1); assay: Inhibition of recombinant HIV-1 integrase by strand-transfer assay
[3] = tested on: Human immunodeficiency virus; assay: Antiviral activity against pseudotyped HIV by luciferase reporter gene assay in presence of human serum albumin; format: functional, organism-based; settings: Human immunodeficiency virus 1
[4] = Half life in rat at 1 mg/kg, iv as bolus dose; format: ADME, organism-based; set-up: dose 1 mg/kg, route intravenous; settings: in vivo
[5] = Plasma clearance in cynomolgus monkey at 1 mg/kg, iv
[6] = Ratio of plasma concentration in dog at 5 mg/kg, po to IC90 for HIV infected in PBMC assessed as protein-adjusted compound concentration; format: ADME, organism-based; set-up: dose 5 mg/kg, route oral; settings: in vivo
[7] = Plasma clearance in dog at 1 mg/kg, iv
[8] = Plasma clearance in rat at 1 mg/kg, iv
[9] = Oral bioavailability in dog at 5 mg/kg; format: ADME, organism-based, Canis lupus familiaris; settings: in vivo
[10] = tested on: Human immunodeficiency virus; assay: Ratio of IC50 for pseudotyped HIV by luciferase reporter gene assay in presence of human serum albumin to IC50 for pseudotyped HIV by luciferase reporter gene assay; format: functional
[11] = Oral bioavailability in rat at 5 mg/kg; format: ADME, organism-based; settings: in vivo
[12] = tested on: Human immunodeficiency virus; assay: Antiviral activity against HIV infected in PBMC assessed as protein-adjusted compound concentration; format: functional, organism-based; settings: Human immunodeficiency virus 1
[13] = tested on: Human immunodeficiency virus; assay: Antiviral activity against HIV infected in PBMC; format: functional, organism-based; settings: Human immunodeficiency virus 1
[14] = Ratio of plasma concentration in rat at 5 mg/kg, po to IC90 for HIV infected in PBMC assessed as protein-adjusted compound concentration; format: ADME, organism-based; set-up: dose 5 mg/kg, route oral; settings: in vivo
[15] = Oral bioavailability in cynomolgus monkey at 5 mg/kg; format: ADME, organism-based, Macaca fascicularis; settings: in vivo
[16] = Ratio of plasma concentration in cynomolgus monkey at 5 mg/kg, po to IC90 for HIV infected in PBMC assessed as protein-adjusted compound concentration; format: ADME, organism-based; set-up: dose 5 mg/kg, route oral; settings: in vivo
[17] = Half life in cynomolgus monkey at 1 mg/kg, iv as bolus dose; format: ADME, organism-based, Macaca fascicularis; set-up: dose 1 mg/kg, route intravenous; settings: in vivo
Cytochrome P450 1A2 = target: T1, Cytochrome P450 1A2 (Homo sapiens, UniProt P05177); assay: Inhibition of CYP1A2 (unknown origin) at 4.7 uM; format: ADME
T1 sequence (P05177 whole entry): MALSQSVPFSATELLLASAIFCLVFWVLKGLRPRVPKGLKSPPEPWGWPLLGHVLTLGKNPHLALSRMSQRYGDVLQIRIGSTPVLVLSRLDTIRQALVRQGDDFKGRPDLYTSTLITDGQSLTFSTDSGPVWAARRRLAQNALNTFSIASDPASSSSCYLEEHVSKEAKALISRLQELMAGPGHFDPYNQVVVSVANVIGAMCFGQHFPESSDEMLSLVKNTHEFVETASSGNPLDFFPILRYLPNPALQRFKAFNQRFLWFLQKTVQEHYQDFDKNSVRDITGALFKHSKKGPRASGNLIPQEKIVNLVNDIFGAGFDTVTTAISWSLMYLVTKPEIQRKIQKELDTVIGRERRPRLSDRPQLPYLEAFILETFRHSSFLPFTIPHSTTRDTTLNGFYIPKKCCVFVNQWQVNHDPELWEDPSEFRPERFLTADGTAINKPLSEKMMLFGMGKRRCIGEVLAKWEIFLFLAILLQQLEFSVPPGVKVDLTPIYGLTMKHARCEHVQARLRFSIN

[18] = Half life in dog at 1 mg/kg, iv as bolus dose; format: ADME, organism-based, Canis lupus familiaris; set-up: dose 1 mg/kg, route intravenous; settings: in vivo
[19] = Inhibition of CYP450 (unknown origin) up to 33 uM; format: ADME; settings: human

Sequence of Human immunodeficiency virus type 1 integrase (Q7ZJM1 whole entry): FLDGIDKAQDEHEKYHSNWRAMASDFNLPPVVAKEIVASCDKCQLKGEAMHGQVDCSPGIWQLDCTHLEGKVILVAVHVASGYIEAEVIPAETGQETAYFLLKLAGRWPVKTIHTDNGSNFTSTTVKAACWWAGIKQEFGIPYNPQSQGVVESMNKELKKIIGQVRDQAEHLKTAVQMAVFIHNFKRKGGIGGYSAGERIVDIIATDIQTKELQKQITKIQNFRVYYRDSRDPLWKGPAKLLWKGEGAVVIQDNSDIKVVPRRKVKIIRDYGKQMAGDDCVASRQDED

Row | SMILES | IC50 [1] [nM] | IC50 [2] [nM] | IC50 [3] [nM] | other results
1 | CN(C)C(=O)Cn1c(=O)c(C(=O)NCCN2CCOCC2)c(O)c2ncc(Cc3ccc(F)cc3)cc21 | 19 | 8.6 | 25 | 
2 | CNC(=O)c1c(O)c2ncc(Cc3ccc(F)cc3)cc2n(CC(=O)NCC2CC2)c1=O | 5.9 | 8 | 33 | 
3 | C[C@@H](O)CNC(=O)c1c(O)c2ncc(Cc3ccc(F)cc3)cc2n(CC(=O)N(C)C)c1=O | 11 | 9.2 | 70 | 
4 | C[C@H](CO)NC(=O)c1c(O)c2ncc(Cc3ccc(F)cc3)cc2n(CC(=O)N(C)C)c1=O | 31 | 8.6 | 40 | 
5 | CNC(=O)c1c(O)c2ncc(Cc3ccc(F)cc3)cc2n(CC(=O)NCCOC)c1=O | 3.7 | 6.8 | 91 | 
6 | COCCNC(=O)c1c(O)c2ncc(Cc3ccc(F)cc3)cc2n(CC(N)=O)c1=O | 4.3 | 7.7 | 22 | 
7 | Cn1c(=O)c(C(=O)NCCO)c(O)c2ncc(Cc3ccc(F)cc3)cc21 [GSK-364735] | 1.7 | 8.1 |  | 
8 | CN(C)C(=O)Cn1c(=O)c(C(=O)NCCO)c(O)c2ncc(Cc3ccc(F)cc3)cc21 | 17 | 5.7 | 35 | 
9 | CNC(=O)c1c(O)c2ncc(Cc3ccc(F)cc3)cc2n(CC(=O)NOC)c1=O | 3.3 | 5.7 | 13 | 
10 | COCCNC(=O)c1c(O)c2ncc(Cc3ccc(F)cc3)cc2n(CC(=O)N2CCCC2)c1=O | 3.8 | 42 | 11 | 
11 | C[C@@H](CO)NC(=O)c1c(O)c2ncc(Cc3ccc(F)cc3)cc2n(CC(=O)N(C)C)c1=O | 17 | 7.1 | 24 | 
12 | CCCNC(=O)Cn1c(=O)c(C(=O)NC)c(O)c2ncc(Cc3ccc(F)cc3)cc21 | 5.5 | 9.2 | 14 | 
13 | CNC(=O)c1c(O)c2ncc(Cc3ccc(F)cc3)cc2n(CC(=O)NC(C)C)c1=O | 3.2 | 7.8 | 12 | 
14 | CNC(=O)c1c(O)c2ncc(Cc3ccc(F)cc3)cc2n(CC(=O)NC(C)(C)C)c1=O | 4.8 | 6.9 | 16 | 
15 | COCCNC(=O)c1c(O)c2ncc(Cc3ccc(F)cc3)cc2n(CC(=O)N2CCCCC2)c1=O | 3.6 | 4.7 | 12 | 
16 | COCCNC(=O)c1c(O)c2ncc(Cc3ccc(F)cc3)cc2n(CC(=O)NCCN(C)C)c1=O | 27 | 45 | 124 | 
17 | CNC(=O)c1c(O)c2ncc(Cc3ccc(F)cc3)cc2n(CC(=O)NC2CC2)c1=O | 2.6 | 4.4 | 7.6 | 
18 | CNC(=O)Cn1c(=O)c(C(=O)NCCOC)c(O)c2ncc(Cc3ccc(F)cc3)cc21 | 3 | 9 | 14 | half-life [4]: 3.7 h; clearance [5]: 2 mL/min/kg; Ratio [6]: 0.1; clearance [7]: 13.8 mL/min/kg; clearance [8]: 0.5 mL/min/kg; bioavailability [9]: 111%; Ratio IC50 [10]: 4.5; bioavailability [11]: 51%; IC50 [12]: 10 nM; IC90 [12]: 41 nM; IC50 [13]: 2.3 nM; Ratio [14]: 56; bioavailability [15]: 19%; Ratio [16]: 0.8; half-life [17]: 2.3 h; inhibition (INH) (Cytochrome P450 1A2): Active; half-life [18]: 1.2 h
19 | COCCNC(=O)c1c(O)c2ncc(Cc3ccc(F)cc3)cc2n(CC(=O)NC(C)C)c1=O | 3.2 | 6.2 | 57 | 

Row | SMILES | IC50 [1] [nM] | IC50 [2] [nM] | IC50 [3] [nM] | other results
20 | CNC(=O)c1c(O)c2ncc(Cc3ccc(F)cc3)cc2n(CC(N)=O)c1=O | 2.2 | 7.6 | 56 | 
21 | COCCNC(=O)c1c(O)c2ncc(Cc3ccc(F)cc3)cc2n(CC(=O)N2CCOCC2)c1=O | 3.5 | 7.6 | 6.7 | 
22 | CN(C)C(=O)Cn1c(=O)c(C(=O)NC2CC2)c(O)c2ncc(Cc3ccc(F)cc3)cc21 | 9.3 | 3 | 193 | 
23 | CN(C)C(=O)Cn1c(=O)c(C(=O)NC(C)(C)CO)c(O)c2ncc(Cc3ccc(F)cc3)cc21 | 3.6 | 6.5 | 82 | 
24 | CNC(=O)c1c(O)c2ncc(Cc3ccc(F)cc3)cc2n(CC(=O)NCCN(C)C)c1=O | 42 | 22 | 83 | 
25 | C[C@H](O)CNC(=O)c1c(O)c2ncc(Cc3ccc(F)cc3)cc2n(CC(=O)N(C)C)c1=O | 7.1 | 4.1 | 15 | 
26 | COCCNC(=O)c1c(O)c2ncc(Cc3ccc(F)cc3)cc2n(CC(=O)NC2CC2)c1=O | 3 | 7.3 | 18 | 
27 | COCCNC(=O)c1c(O)c2ncc(Cc3ccc(F)cc3)cc2n(CC(=O)N2CCN(C)CC2)c1=O | 5.3 | 28 | 13 | 
28 | COCCNC(=O)c1c(O)c2ncc(Cc3ccc(F)cc3)cc2n(CC(=O)NCC(F)(F)F)c1=O | 2.4 | 11 | 20 | 
29 | CNC(=O)c1c(O)c2ncc(Cc3ccc(F)cc3)cc2n(CC(=O)N(C)C)c1=O | 5.9 | 9.3 | 19 | half-life [4]: 13.8 h; clearance [5]: 6.3 mL/min/kg; Ratio [6]: 0.1; inhibition (INH) [19]: Not Active; clearance [7]: 10.9 mL/min/kg; clearance [8]: 0.7 mL/min/kg; bioavailability [9]: 75%; Ratio IC50 [10]: 3.3; bioavailability [11]: 69%; IC50 [12]: 14 nM; IC90 [12]: 55 nM; IC50 [13]: 4.2 nM; Ratio [14]: 2.4; bioavailability [15]: 60%; Ratio [16]: 0.7; half-life [17]: 5 h; half-life [18]: 1.3 h
30 | CNC(=O)Cn1c(=O)c(C(=O)NC)c(O)c2ncc(Cc3ccc(F)cc3)cc21 | 3.3 | 9.3 | 22 | 
31 | CCNC(=O)Cn1c(=O)c(C(=O)NC)c(O)c2ncc(Cc3ccc(F)cc3)cc21 | 2.9 | 8.2 | 11 | 
32 | CCN(CC)C(=O)Cn1c(=O)c(C(=O)NC)c(O)c2ncc(Cc3ccc(F)cc3)cc21 | 9.2 | 4.4 | 17 | 
33 | CNC(=O)c1c(O)c2ncc(Cc3ccc(F)cc3)cc2n(CC(=O)N2CCCC2)c1=O | 4.9 | 13 | 16 | 
34 | COCCNC(=O)c1c(O)c2ncc(Cc3ccc(F)cc3)cc2n(CC(=O)N(C)C)c1=O | 3.1 | 4 | 9 | half-life [4]: 12.5 h; clearance [5]: 9.2 mL/min/kg; inhibition (INH) [19]: Not Active; clearance [7]: 19.5 mL/min/kg; clearance [8]: 3.6 mL/min/kg; bioavailability [9]: 7%; Ratio IC50 [10]: 2.9; bioavailability [11]: 59%; IC50 [12]: 13 nM; IC90 [12]: 50 nM; IC50 [13]: 4.3 nM; Ratio [14]: 0.5; bioavailability [15]: 31%; Ratio [16]: 0.6; half-life [17]: 5.4 h; half-life [18]: 1.8 h
35 | CN(C)C(=O)Cn1c(=O)c(C(=O)NC2(CO)CCCC2)c(O)c2ncc(Cc3ccc(F)cc3)cc21 | 7.2 | 23 | 24 | 
36 | COCCNC(=O)c1c(O)c2ncc(Cc3ccc(F)cc3)cc2n(CC(=O)NC2CCC2)c1=O | 3.3 | 8.5 | 39 | 
37 | CNC(=O)c1c(O)c2ncc(Cc3ccc(F)cc3)cc2n(CC(=O)NCC(F)(F)F)c1=O | 1.5 | 7.1 | 15 | 
